# Measured values taken from article PMC9996038, “Binding of RPR260243 at the intracellular side of the hERG1 channel pore domain slows closure of the helix bundle crossing gate” (Frontiers in Molecular Biosciences, 2023).
# Target: T1, hERG1a (human ether-à-go-go-related gene type 1, Kv11.1) (Homo sapiens, UniProt Q12809)
# T1 construct: gene KCNH2; EC50 on split hERG1a (residues 1–545 VSD module + residues 546–1,159 pore module, coexpressed)
# Experiment: two-electrode voltage clamp of channels expressed in Xenopus oocytes (slowing of deactivation)
# Format: cell-based
# T1 sequence (Q12809 546-1159): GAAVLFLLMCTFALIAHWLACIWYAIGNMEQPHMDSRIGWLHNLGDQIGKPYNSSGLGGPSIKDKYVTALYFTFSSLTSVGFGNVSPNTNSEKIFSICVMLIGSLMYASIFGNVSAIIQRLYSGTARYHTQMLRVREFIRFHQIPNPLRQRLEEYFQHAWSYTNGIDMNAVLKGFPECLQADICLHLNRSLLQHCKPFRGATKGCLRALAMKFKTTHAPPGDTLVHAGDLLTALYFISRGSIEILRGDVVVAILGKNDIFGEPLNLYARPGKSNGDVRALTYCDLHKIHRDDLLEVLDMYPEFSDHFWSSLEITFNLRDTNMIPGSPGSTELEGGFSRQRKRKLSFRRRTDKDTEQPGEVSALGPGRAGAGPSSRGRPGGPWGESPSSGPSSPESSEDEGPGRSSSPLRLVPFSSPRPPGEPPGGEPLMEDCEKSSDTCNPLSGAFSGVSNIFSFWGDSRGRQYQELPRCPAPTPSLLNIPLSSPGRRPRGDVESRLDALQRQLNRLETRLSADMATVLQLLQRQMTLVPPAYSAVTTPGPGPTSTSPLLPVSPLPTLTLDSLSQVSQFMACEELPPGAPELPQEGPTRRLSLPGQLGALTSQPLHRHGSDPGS
# T1 sequence (Q12809 1-545 partner): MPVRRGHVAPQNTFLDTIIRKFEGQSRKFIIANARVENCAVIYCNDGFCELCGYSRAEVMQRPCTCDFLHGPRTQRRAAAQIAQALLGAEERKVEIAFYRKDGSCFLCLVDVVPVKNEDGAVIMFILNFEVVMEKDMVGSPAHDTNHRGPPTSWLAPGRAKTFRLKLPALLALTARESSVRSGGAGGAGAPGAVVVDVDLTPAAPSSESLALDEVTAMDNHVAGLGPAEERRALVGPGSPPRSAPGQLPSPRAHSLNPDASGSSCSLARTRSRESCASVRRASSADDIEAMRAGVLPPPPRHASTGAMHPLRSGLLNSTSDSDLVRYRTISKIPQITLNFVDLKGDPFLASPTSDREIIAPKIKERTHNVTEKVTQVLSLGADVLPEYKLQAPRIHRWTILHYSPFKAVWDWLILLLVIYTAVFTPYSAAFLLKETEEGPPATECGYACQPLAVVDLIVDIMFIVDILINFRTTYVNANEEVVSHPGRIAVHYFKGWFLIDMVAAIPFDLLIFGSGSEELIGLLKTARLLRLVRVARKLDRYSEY
structure (smiles),measurement,value
"COc1ccc2nccc(C(=O)CC[C@@H]3CCN(CC#Cc4cc(F)cc(F)c4F)C[C@@H]3C(=O)O)c2c1 [RPR, (3R,4R)-4-[3-(6-methoxyquinolin-4-yl)-3-oxo-propyl]-1-[3-(2,3,5-trifluorophenyl)-prop-2-ynyl]-piperidine-3-carboxylic acid]",EC50,7.9 ± 1 µM
